Data reported in patent US9980972B2, “Rho kinase inhibitors for use in treating familial amyotrophic lateral sclerosis” (GEORG-AUGUST-UNIVERSITÄT GÖTTINGEN STIFTUNG ÖFFENTLICHEN …, priority 2012, dated 2018).

How the values were obtained:
[1] = system: spinal cord microglia of SOD1 G93A mice; assay: Iba1 immunopositive microglia count in spinal cord anterior horn; type: in vivo, mouse
Description: Spinal cord sections selected for immunohistochemical processing were first rehydrated. Then antigen-retrieval was performed for 4 h in TBS at 60° C. for later GFAP or Iba1 labeling and for 30 min in sodium citrate (pH 9.0) at 80° C. for later ChAT labeling. After washing for one time in PBS the sections were incubated at room temperature either in PBS and 10% of normal goat serum for later GFAP labeling or in PBS and 5% normal donkey serum for later ChAT labeling to block unspecific binding. The primary antibodies (anti-ChAT 1:100, AB144 P, Millipore; anti-GFAP 1:200, DAKO; anti-Iba1 1:500, WAKO, Osaka, Japan) were applied at 4° C. for one night for GFAP and for three nights for ChAT. The secondary antibodies (Cy3 anti-goat or Cy2/Dylight anti rabbit; both Dianova) were applied on separate sections 1:300 for 1 h at room temperature. Then a nuclear counter-stain with DAPI (4,6-diamidino-2-phenylindole) (Sigma-Aldrich) was performed before mounting in Moviol (Hoechst, Frankfurt, Germany).
Astrogliosis and microgliosis were evaluated by the quantification of GFAP or Iba1 positive cells in the ventral horn of lumbar spinal cord sections, respectively. Again, the area of the ventral horn was defined and GFAP or Iba1 positive cells were manually counted. In the d50 treatment group analyzed at death, a total of 20 mice was counted from the vehicle (3 male, 3 female), Fas30 (3 male, 3 female), Fas100 (3 male, 3 female) and wildtype (1 male, 1 female) group. In the d50 treatment group analyzed at d100, a total of 20 mice was counted from the vehicle (3 male, 3 female), Fas30 (3 male, 3 female), Fas100 (3 male, 3 female) and wildtype (1 male, 1 female) group.
The extent of microglial cell dissemination in the lumbar spinal cord was evaluated with a marker of activated microglia (Iba1) as described above under the heading “Quantitative evaluation of spinal cord motoneurons and astroglia, sciatic nerve axons and NMJ”.

[2] = system: SOD1 G93A mouse model of ALS; assay: Hanging wire test (crude muscular strength), time to failure of 180 s; type: in vivo; details: either treatment groups of both sexes
From the text: The hanging wire test evaluates crude grip strength of the upper extremities.
The hanging wire performance evaluating crude muscular strength in the task to reach a total hanging wire time of 180 s was not different in either treatment groups of both sexes (FIG. 6). Wildtype animals always reached the maximum time of 180 s (data not shown).

[3] = system: SOD1 G93A mouse model of ALS; assay: Rotarod test (motor coordination), time to failure of 180 s; type: in vivo
From the text: From a patient's point of view overall survival is not the only parameter of a successful therapy. Many recent therapeutic studies in humans rather evaluate an increased time with improved quality of life. An improved motor function could be one parameter that is relevant for the quality of daily life and therefore the inventors chose two different tests to monitor motor function in the present animal model. The rotarod test evaluates fine motor coordination and is a very sensitive test for the ability to move on an unstable underground. Evaluating motor coordination by subjecting the animals to the rotarod test, the presymptomatic female treatment group failed later in the task to reach a total running time of 180 s (122.5 days) in comparison to the vehicle-treated group (114.2 days).

[4] = system: spinal cord motoneurons of SOD1 G93A mice; assay: ChAT positive motoneurons in lumbar spinal cord sections; type: in vivo, mouse; details: for ChAT cell numbers per lumbar spinal cord section / motoneuron count: time of death; for ChAT cell numbers per lumbar spinal cord section: vehicle 6.1±0.95
Description: After deep anaesthesia, mice were transcardially perfused with PBS solution followed by 4% paraformaldehyde. Spinal cords, sciatic nerves and gastrocnemius muscles were removed. Spinal cords and gastrocnemius muscles were then postfixed for 2 h in 4% paraformaldehyde. Thereafter, the tissue was dehydrated in 30% sucrose overnight and kept at -20° C. until further processing. Coronal sections of the lumbar spinal cord (L3-L6) (20 μm) and horizontal sections of the tibial muscle (35 μm) were prepared using a Leica Kryostat and collected on gelatine-coated glass slides. Spinal cord sections selected for immunohistochemical processing were first rehydrated. Then antigen-retrieval was performed for 4 h in TBS at 60° C. for later GFAP or Iba1 labeling and for 30 min in sodium citrate (pH 9.0) at 80° C. for later ChAT labeling. […] The primary antibodies (anti-ChAT 1:100, AB144 P, Millipore; anti-GFAP 1:200, DAKO; anti-Iba1 1:500, WAKO, Osaka, Japan) were applied at 4° C. for one night for GFAP and for three nights for ChAT. The secondary antibodies (Cy3 anti-goat or Cy2/Dylight anti rabbit; both Dianova) were applied on separate sections 1:300 for 1 h at room temperature. […] In order to quantify motoneuron numbers in coronal cryosections from the lumbar spinal (L3-L6) cord first the area of the ventral horn was defined according to the criteria from Kong et al. (Kong and Xu 1998). […] At least five sections per mouse spinal cord that were 100 μm apart over a length of at least 500 μm isolated from the lumbar spinal cord were counted. In the d50 treatment group analyzed at death, a total of 20 mice was counted from the vehicle (3 male, 3 female), Fas30 (3 male, 3 female), Fas100 (3 male, 3 female) and wildtype (1 male, 1 female) group. In the […] treatment group analyzed at death, a total of 20 mice was counted from the vehicle (3 male, 3 female), Fas30 (3 male, 3 female), and Fas100 (3 male, 3 female) and wildtype (1 male, 1 female) group. In the d50 treatment group analyzed at […], a total of 20 mice was counted from the vehicle (3 male, 3 female), Fas30 (3 male, 3 female), Fas100 (3 male, 3 female) and wildtype (1 male, 1 female) group.

[5] = CSF analysis after sub-occipital cistern magna puncture; type: in vivo, mouse; details: oral via drinking water; data not shown
Description: To reach sufficient CSF levels of Fasudil the inventors administered Fasudil (LC Labs, Woburn, USA; product number F-4660) at a low concentration of […] (Fas30) or at a high concentration of 50 mg (Fas100) in 100 ml drinking water. Control groups received the respective amount of isotonic drinking water termed as vehicle (Veh).

Compound: O=S(=O)(c1cccc2cnccc12)N1CCCNCC1 [Fasudil, 1-(5-isoquinolinesulfonyl)homopiperazine]
- Iba1 immunopositive microglial cells ([1]; d100, Fasudil 30, vehicle SOD1G93A 27.8±4.7, wildtype 14.0±2.8): 39.5±3.9 cells/0.5 mm^2
- Iba1 immunopositive microglial cells ([1]; disease end-stage, Fas30, vehicle 43.2±4.2): 48.8±3.3 cells/0.5 mm^2
- Iba1 immunopositive microglial cells ([1]; disease end-stage, Fas100, vehicle 43.2±4.2): 50.2±4.7 cells/0.5 mm^2
- hanging wire performance (180 s) [2]: not different
- rotarod performance ([3]; male, presymptomatic Fas30): slight non-significant trend to improved performance
- time to failure to reach 180 s rotarod running time ([3]; presymptomatic female treatment group, vehicle 114.2 days): 122.5 days
- rotarod performance ([3]; symptomatic treatment): not able to improve rotarod performances
- motoneuron numbers differentiated by cell body size ([4]; day 100, female, Fas30 vs transgenic vehicle, trend not significant): more motoneurons in all size groups
- cumulative cell body size per anterior horn section ([4]; day 100, female, Fasudil vs vehicle): defined trend to be larger
- numbers of ChAT positive motoneurons ([4]; day 100, female, presymptomatic Fas30 vs transgenic vehicle): strong trend of elevated numbers of motoneurons
- ChAT cell numbers per lumbar spinal cord section ([4]; female, presymptomatic F100 (high dose)): 7.3±1.00
- ChAT cell numbers per lumbar spinal cord section ([4]; female, presymptomatic Fas30): 8.6±0.36
- motoneuron count ([4]; female, symptomatic treatment groups): did not differ
- motoneuron count ([4]; male, presymptomatic Fas30 or Fas100): did not profit
- motoneuron count ([4]; male, symptomatic Fas30 vs vehicle): higher motoneuron numbers
- blood-brain-barrier crossing (CSF analysis) [5]: readily crossed the blood-brain-barrier
